Results reported in publication PMC11768370, “Etodolac Single Dose Metabolic Profile Elucidation: Pharmacokinetics and Adverse Events in Healthy Volunteers” (Pharmaceuticals, 2025).
Several values for one entry are separate records, joined by “and”; a condition that tells them apart may be missing. Equal entries are not always repeated. Where two headings read alike, the source gives them in different places.

Legend:
[1] = Etodolac pharmacokinetic profile after a single dose, plasma LC-MS/MS, non-compartmental; type: in vivo, human
Description: The analytical method used to calculate the pharmacokinetic parameters was validated according to Resolution No. 27/2012 of the Agência Nacional de Vigilância Sanitária (ANVISA). In this study, an LC-MS/MS system was used to quantify ETO. Chromatographic separations were performed using an LC-20AD analytical pump (Shimadzu, Kyoto, Japan) and a SIL-20A HT autosampler (Shimadzu, Kyoto, Japan), coupled to a Quattro Micro (Micromass, Newcastle, UK) system for triple quadrupole mass spectrometry analyses with an electrospray ionization (ESI) source (Waters, Newcastle, UK). The targeted analysis for ETO was detected by a multiple reaction monitoring (MRM) transition of 286 > 242, and mefenamic acid (Internal Standard) was detected by an MRM transition of 240 > 196 in negative acquisition mode. Data were collected using MassLynx 4.1 (Waters, Newcastle, UK). Further information on the validation method can be found in Supplementary Materials and Methods. WinNonLin 8.3 software (Pharsight, New Jersey, USA) was used to calculate pharmacokinetic parameters using non-compartmental statistics. […]
Table S3. Pharmacokinetics parameters. Pharmacokinetics parameters were calculated for each participant using the concentration across time data. […]
1. Volunteers and Study Design
The present study was nested in a single-dose, open-label, randomized pharmaco-bioequivalence study performed under biosafety and ethical standards. The reference formulation was an etodolac controlled-release coated tablet of 500 mg Flancox® with the administration of one single-dose tablet.
The volunteers were hospitalized at 7:00 p.m. and had supper before 9:00 p.m. After an overnight fast, a speciﬁc high-calorie diet was administered 30 minutes before taking the medication. They received (at ∼7:00 a.m.) a tablet of 500 mg of etodolac with 200 mL of water. Lunch: 4 hours after taking the medication. Afternoon snack: 8 hours after taking the medication. Dinner: 10 hours after […]
At 2 h before and 6, 8, and 12 h after the dose administration, vital signs were checked. The […] period was 24 h, during which period, blood samples (5 mL) from a suitable antecubital vein were collected, post-dosing via an indwelling catheter, into ethylenediaminetetraacetic acid […]
for 10 min at 4°C, and the plasma was stored at -70°C until assayed. Samples were handled under yellow light due to the photosensitivity of the drug.
2. Determination of Pharmacokinetic Proﬁle by LC-MS/MS
Chromatographic separations were performed in an LC-20AD analytical pump and SIL-20A HT autosampler from Shimadzu. The stationary phase employed an Agilent Polaris 5 µm C18-A 50 x […]
2,0mm column (Phenomenex). The mobile phase consisted of a solution of acetonitrile and 5 mM ammonium acetate, ﬂowing at 0.3 mL/min in proportion (8:2). The autosampler was maintained at 22°C, with an injection volume of 5 µl and 2.5-minute duration. Mass spectrometry was conducted on a Quattro Micro mass spectrometer from Micromass, equipped with an electrospray ionization (ESI) source. While operating in negative ionization mode with nitrogen as the desolvation gas, ESI source parameters were set as follows: source temperature of 100°C, desolvation temperature of 450°C, desolvation ﬂow of 800 L h-1, and capillary voltage of 3,50 kV. Etodolac was detected by a multiple reaction monitoring (MRM) transition of 286 > 242 using a cone voltage of 30 eV, and mefenamic acid was detected by an MRM transition of 240 > 196 using a cone voltage of 30 eV. Data was acquired using MassLynx 4.1.
2.1. Preparation of Standards and Quality Controls
Etodolac stock solution (108.5 µg/mL) was prepared in methanol and diluted with H2O to obtain the corrected stock solution (100 µg/mL) for the spiking calibration curve and quality controls (QC) samples. QC samples were prepared in the following levels: low, 0,6 µg/mL (LQC); medium, 50 µg/mL (MQC); high, 75 ug/mL (HQC); and a dilution, 42.5 µg/mL (DQC), calculated by taking the […]

[2] = set-up: method as in PMID 36959150; conditions: cited from earlier work
[3] = Adverse events monitoring by clinical evaluation and laboratory tests after single dose
[4] = Maximum of 37 participants, single dose 500 mg
[5] = Minimum of 37 participants, single dose 500 mg
[6] = individual participants P1-P37, single dose 500 mg
[7] = 37 healthy volunteers, single dose 500 mg
[8] = Adverse event: Alanine Aminotransferase Increased
[9] = Adverse event: Alkaline Phosphatase Increased
[10] = Adverse event: Altered Erythrogram
[11] = Adverse event: Altered Leukogram
[12] = Adverse event: Decreased Platelet Count
[13] = Adverse event: Fastting Glucose Increased
[14] = Adverse event: Increased Total Bilirubin and Fractions
[15] = Adverse event: Total Cholesterol Increased

CCc1cccc2c3c([nH]c12)C(CC)(CC(=O)O)OCC3 (stereo not drawn) [Etodolac]
AUC0-t [1, 4]: 480.52 µg·h/mL
Cmax [1, 4]: 59.07 µg/mL
Kel [1, 4]: 0.15 h⁻¹
T1/2 [1, 4]: 20.09 h
Tmax [1, 4]: 5.00 h
AUC0-t [1, 5]: 94.14 µg·h/mL
Cmax [1, 5]: 18.69 µg/mL
Kel [1, 5]: 0.035 h⁻¹
T1/2 [1, 5]: 4.76 h
Tmax [1, 5]: 0.75 h
AUC0-t ([1]; both sexes, human, oral, 500 mg, Mean of 37 participants, single dose 500 mg, read-out: AUC0-t): 203 µg·h/mL
Cmax ([1]; both sexes, human, oral, 500 mg, Mean of 37 participants, single dose 500 mg, read-out: Cmax): 35.5 µg/mL
k el ([1]; both sexes, human, oral, 500 mg, Mean of 37 participants, single dose 500 mg, read-out: Kel (converted)): 2.5e-05 s⁻¹
half-life ([1]; both sexes, human, oral, 500 mg, Mean of 37 participants, single dose 500 mg, read-out: T1/2 (converted)): 8.2 h
Tmax ([1]; both sexes, human, oral, 500 mg, Mean of 37 participants, single dose 500 mg, read-out: Tmax): 2.24 h
k el ([1]; both sexes, human, oral, 500 mg, overall mean (SD), 37 healthy volunteers, single dose Flancox 500 mg tablet after high-calorie diet, read-out: elimination rate constant (Kel) (converted)): 2.5e-05 s⁻¹
half-life ([1]; both sexes, human, oral, 500 mg, overall mean (SD), 37 healthy volunteers, single dose Flancox 500 mg tablet after high-calorie diet, read-out: half-life (T1/2) (converted)): 8.2 h
Cmax ([1]; both sexes, human, oral, 500 mg, overall mean (SD), 37 healthy volunteers, single dose Flancox 500 mg tablet after high-calorie diet, read-out: maximum concentration (Cmax)): 35.5 µg/mL
Tmax ([1]; both sexes, human, oral, 500 mg, overall mean (SD), 37 healthy volunteers, single dose Flancox 500 mg tablet after high-calorie diet, read-out: time to maximum concentration (Tmax)): 2.24 h
AUC0-t ([1]; both sexes, human, oral, overall mean (SD), 37 healthy volunteers, single dose Flancox 500 mg tablet after high-calorie diet, read-out: area under the curve from time zero to time t (AUC0-t)): 203 µg·h/mL
Cmax [1, 6]: 45.68 µg/mL
Tmax [1, 6]: 2.25 h and 2.75 h and 1.50 h and 3.00 h and 1.25 h and 3.67 h and 4.00 h and 3.33 h and 2.50 h and 1.00 h and 2.00 h and 1.75 h and 5.00 h and 0.75 h
solubility [2]: poor solubility
Biopharmaceutics Classification System class ([2]; dissolution rate-dependent absorption): BCS class II
adverse events: intensity (all events) [3, 7]: mild
adverse events: predictability (all events) [3, 7]: not expected
adverse events recorded (total) ([3]; 37 healthy volunteers, single dose 500 mg, results outside reference values): 19
Intensity (Mild / Moderate / Severe / Lethal) [3, 8]: Mild
Predictability (Expected / Not Expected) [3, 8]: Not Expected
Events count ([3]; Adverse event: Alanine Aminotransferase Increased, 37 healthy volunteers, single dose 500 mg): 3
Intensity (Mild / Moderate / Severe / Lethal) [3, 9]: Mild
Predictability (Expected / Not Expected) [3, 9]: Not Expected
Events count ([3]; Adverse event: Alkaline Phosphatase Increased, 37 healthy volunteers, single dose 500 mg): 1
Intensity (Mild / Moderate / Severe / Lethal) [3, 10]: Mild
Predictability (Expected / Not Expected) [3, 10]: Not Expected
Events count ([3]; Adverse event: Altered Erythrogram, 37 healthy volunteers, single dose 500 mg): 3
Intensity (Mild / Moderate / Severe / Lethal) [3, 11]: Mild
Predictability (Expected / Not Expected) [3, 11]: Not Expected
Events count ([3]; Adverse event: Altered Leukogram, 37 healthy volunteers, single dose 500 mg): 3
Intensity (Mild / Moderate / Severe / Lethal) [3, 12]: Mild
Predictability (Expected / Not Expected) [3, 12]: Not Expected
Events count ([3]; Adverse event: Decreased Platelet Count, 37 healthy volunteers, single dose 500 mg): 1
Intensity (Mild / Moderate / Severe / Lethal) [3, 13]: Mild
Predictability (Expected / Not Expected) [3, 13]: Not Expected
Events count ([3]; Adverse event: Fastting Glucose Increased, 37 healthy volunteers, single dose 500 mg): 3
Intensity (Mild / Moderate / Severe / Lethal) [3, 14]: Mild
Predictability (Expected / Not Expected) [3, 14]: Not Expected
Events count ([3]; Adverse event: Increased Total Bilirubin and Fractions, 37 healthy volunteers, single dose 500 mg): 1
Intensity (Mild / Moderate / Severe / Lethal) ([3]; Adverse event: Leukocyturia): Mild
Predictability (Expected / Not Expected) ([3]; Adverse event: Leukocyturia): Not Expected
Events count ([3]; Adverse event: Leukocyturia, 37 healthy volunteers, single dose 500 mg): 1
Intensity (Mild / Moderate / Severe / Lethal) [3, 15]: Mild
Predictability (Expected / Not Expected) [3, 15]: Not Expected
Events count ([3]; Adverse event: Total Cholesterol Increased, 37 healthy volunteers, single dose 500 mg): 3
